# Laboratory results from patent US7172907B2, “Cyanine dye labelling reagents with meso-substitution” (GE Healthcare Bio-Sciences Corp., priority 2003, dated 2007).
# Assays:
# [1] = background values for known Cy dyes, X = Y = C(CH3)2; cited from earlier work
# [2] = Fluorescence quantum yield relative to Cy5; type: physicochemical; details: expressed as fraction of that of Cy5
# Description: (§1) 2-{N-Acetyl-N-phenyl}aminoethenyl-1,3,3-trimethylindoleriine and 2-{N-acetyl-N-phenyl}aminoethenyl-1-{6-carboxypentyl}-3,3-trimethylindolenine (20 mmoles of each) and 10 equivalents of cyanoacetic acid in pyridine (100 ml) were heated under reflux under Argon for 4 hours. At the end of the reaction, the pyridine was evaporated and the product purified by repeated HPLC purification followed by silica gel column chromatography with increasing amounts of MeOH in ethyl acetate as the eluant to give a pure product, 2-{5-[1-(5-carboxypentyl)-3,3-dimethyl-1,3-dihydro-2H-indol-2-ylidene]-3-cyano-1,3-pentadienyl}-1,3,3-trimethyl-3H-indolinium (meso-cyano Cy5). Absorption maximum (MeOH): 610 nm: Emission maximum (MeOH): 628 nm; Quantum yield: 0.65 that of Cy5.
# [3] = Absorption and emission spectra of meso-cyano Cy5 in MeOH; type: physicochemical
# Description: as §1
# [4] = Photostability: ethanolic solution left in the room light, fading of the dyes; type: physicochemical
# [5] = Hydrolytic stability in de-ionized water, fading of the dyes; type: physicochemical
Quantum yield [2],Absorption maximum [3] [nm],Emission maximum [3] [nm],half-life ([4]; read-out: Photostability: half-life (t1/2) for fading of the dyes) [h],"half-life ([5]; pH=6.85, read-out: Hydrolytic stability: half-life (t1/2) for fading of the dyes) [h]",Photostability: half-life (t1/2) for fading of the dyes [4] [h],Hydrolytic stability: half-life (t1/2) for fading of the dyes ([5]; pH=6.85) [h],Compound,Abs max [1] [nm],Em max [1] [nm]
,,,,,,,Cy5.5,675,694
0.65,610,628,> 75,> 150,,,"CN1/C(=C/C=C(C#N)/C=C/C2=[N+](CCCCCC(=O)O)c3ccccc3C2(C)C)C(C)(C)c2ccccc21 [meso-cyano Cy5, 2-{5-[1-(5-Carboxypentyl)-3,3-dimethyl-1,3-dihydro-2H-indol-2-ylidene]-3-cyano-1,3-pentadienyl}-1,3,3-trimethyl-3H-indolinium]",,
,,,,,,,CCN1C(=CC=CC2=[N+](CCCCCC(=O)O)c3ccc(S(=O)(=O)O)cc3C2(C)C)C(C)(C)c2cc(S(=O)(=O)[O-])ccc21 [Cy3],550,570
,,,,,22,56,CCN1/C(=C/C=C/C=C/C2=[N+](CCCCCC(=O)O)c3ccc(S(=O)(=O)O)cc3C2(C)C)C(C)(C)c2cc(S(=O)(=O)[O-])ccc21 [Cy5],649,670
